Assay results published in patent US8685934B2, “Methods for treating extreme insulin resistance in patients resistant to previous treatment with other anti-diabetic drugs employing an SGLT2 inhibitor and compositions thereof” (Bristol-Myers Squibb Company, priority 2009, dated 2014).
Where two headings read alike, the source gives them in different places.

Tested on: highly insulin-resistant T2DM patients poorly controlled with insulin plus metformin and/or thiazolidinediones
Details: for Total daily insulin dose, mean (SD), End of Double-blind (Week 12 LOCF) / Total daily insulin dose, change from baseline, mean (95% CI): includes data after insulin up-titration; for Total daily insulin dose, mean (SD), End of Double-blind (Week 12 LOCF): U = units of U100 insulin; for Postprandial glucose, mean (SD), End of Double-blind (Week 12 LOCF): measured at 120 minutes by OGTT; for Postprandial glucose, change from baseline, mean (95% CI): 120 minutes by OGTT; for Fasting plasma glucose, change from baseline, mean (95% CI) / HbA1c, change from baseline, mean (95% CI) / Weight, change from baseline, mean (95% CI) / Total daily insulin dose, change from baseline, mean (95% CI): ANCOVA-adjusted
Method: Criteria for management of hyperglycemia were determined by fasting plasma glucose (FPG) measurements. For any FPG level >240 mg/dL at weeks 4 and 6, >220 mg/dL at week 8, or >200 mg/dL at week 10, the patient would be scheduled for a follow-up visit in 3 to 5 days. If FPG was still above the threshold at follow-up, a visit was scheduled in order to increase the insulin dose as clinically indicated. Patients who further lacked glycemic control despite up-titration, or whose modified insulin dose exceeded baseline, were discontinued from blinded treatment and entered into follow-up.
All patients were on insulin-sensitizer therapy for at least 6 weeks prior to enrollment and insulin-based therapy for at least 12 weeks prior to enrollment. The study protocol defined insulin-sensitizer therapy as metformin (stable dose ≧1000 mg) and/or pioglitazone (stable dose ≧30 mg) or rosiglitazone (stable dose 4 mg). Insulin-based therapy was defined as subcutaneous insulin for at least 12 weeks prior to enrollment, with 2 minimum insulin daily dose equivalent to 50 units (median 85 to 93 units across all study arms) of U100 insulin per day. The insulin regimen must have been stable for at least 6 weeks. In addition to 10 mg dapagliflozin or 20 mg dapagliflozin daily or placebo, 74.6% of patients received metformin (≧1000 mg daily) plus insulin; 16.9% of patients received metformin (≧1000 mg daily) plus pioglitazone (≧30 mg daily) or rosiglitazone (4 mg daily) plus insulin and 8.5% of patients received pioglitazone (≧30 mg daily) or rosiglitazone (4 mg daily) plus insulin.
Patients in Cohort 1 were evaluated for safety only. Patients in Cohort 2 were evaluated for safety and efficacy. The primary efficacy measure was change from baseline in HbAlc, at week 12, last observation carried forward (LOCF). If no week 12 assessment was available, the last observation prior to week 12 was used. Secondary efficacy measures included changes from baseline at week 12 (LOCF) in FPG and insulin dose, the proportion of patients achieving a decrease in HbAlc>0.5% from baseline at week 12 (LOCF), and the proportion of patients achieving HbAlc<7% at week 12 (LOCF). Tertiary endpoints included changes from baseline in total body weight and in postprandial glucose (PPG) measured by an oral glucose tolerance test (OGTT).
Patients in Cohort 2 were evaluated for safety and efficacy. The primary efficacy measure was change from baseline in HbAlc at week 12, last observation carried forward (LOCF). The analysis was done excluding data after up-titration of insulin. If no week 12 assessment was available, the last observation prior to week 12 was used.
For Cohort 2, the sample size target of 22 patients per treatment group was chosen to allow for the calculation of 95% confidence intervals for the primary endpoint with a half-width of 0.42% for each treatment group. This assumed a 1% standard deviation for the primary endpoint in each of the dapagliflozin and placebo arms. With the same assumption, the half-width of a 95% confidence interval for the difference between any two treatment mean changes was estimated to be 0.59%. The primary efficacy data set consisted of all randomized patients who took at least one dose of double-blind study medication during the treatment phase. The analyses of the efficacy variables (except change from baseline in insulin dose) were done excluding data after up-titration of insulin. The analyses for changes from baseline in HbAlc, FPG, insulin dose, and total body weight at week 12 (LOCF) were performed using an analysis of covariance (ANCOVA) model with treatment group as an effect and baseline value as a covariate. Point estimates and 95% confidence intervals were calculated for mean changes within each treatment group and for differences in mean changes between the dapagliflozin and placebo groups.

[1] = Dapagliflozin 10 mg + insulin + OAD, excludes data after insulin up-titration
[2] = Dapagliflozin 10 mg + insulin + OAD, week 12 LOCF
[3] = Dapagliflozin 10 mg + insulin + OAD, week 12 LOCF, excludes data after insulin up-titration
[4] = Dapagliflozin 10 mg + insulin + OAD, week 12 LOCF, excludes data after insulin up-titration, listed as dapagliflozin
[5] = Dapagliflozin 10 mg + insulin + OAD, week 12 LOCF, of 23 patients, excludes data after insulin up-titration
[6] = Dapagliflozin 20 mg + insulin + OAD, excludes data after insulin up-titration
[7] = Dapagliflozin 20 mg + insulin + OAD, week 12 LOCF
[8] = Dapagliflozin 20 mg + insulin + OAD, week 12 LOCF, excludes data after insulin up-titration
[9] = Dapagliflozin 20 mg + insulin + OAD, week 12 LOCF, excludes data after insulin up-titration, listed as dapagliflozin

CCOc1ccc(Cc2cc([C@@H]3O[C@H](CO)[C@@H](O)[C@H](O)[C@H]3O)ccc2Cl)cc1 [Dapagliflozin, (2S,3R,4R,5S,6R)-2-(4-chloro-3-(4-ethoxybenzyl)phenyl)-6-(hydroxymethyl)tetrahydro-2H-pyran-3,4,5-triol]
Reductions in HbAlc and improvements over placebo in FPG and PPG, dose relation, in words (10 and 20 mg dapagliflozin): dose-dependent | Change from baseline in total daily insulin dose, in words (Cohort 2, week 12): no appreciable change | Fasting plasma glucose, mean (SD), End of Double-blind (Week 12 LOCF) [1]: 160.5 (38.7) mg/dL | Weight, mean (SD), End of Double-blind (Week 12 LOCF) [1]: 98.2 (9.4) kg | Total daily insulin dose, mean (SD), End of Double-blind (Week 12 LOCF) (Dapagliflozin 10 mg + insulin + OAD): 51.3 (20.1) U | Postprandial glucose, mean (SD), End of Double-blind (Week 12 LOCF) [1]: 286.0 (55.1) mg/dL | Fasting plasma glucose change from baseline, difference vs placebo + insulin + OAD, mean (95% CI) [2]: −15.4 (−38.4 to 7.5) mg/dL | HbA1c change from baseline, difference vs placebo + insulin + OAD, mean (95% CI) [2]: −0.70 (−1.08 to −0.32) % | Patients with ↓ HbA1c ≧ 0.5%, difference in proportions vs placebo + insulin + OAD (95% CI) [2]: 49.4 (20.1 to 72.4) % | Total daily insulin dose change from baseline, difference vs placebo + insulin + OAD, mean (95% CI) [2]: −3.1 (−10.7 to 4.6) U | Weight change from baseline, difference vs placebo + insulin + OAD, mean (95% CI) [2]: −2.6 (−4.0 to −1.2) kg | Postprandial glucose, change from baseline, mean (95% CI) [3]: −34.3 (−67.5 to −1.1) mg/dL | Fasting plasma glucose, change from baseline, mean (95% CI) [3]: 2.4 (−13.6 to 18.3) mg/dL | HbA1c, change from baseline, mean (95% CI) [3]: −0.61 (−0.87 to −0.36) % | Weight, change from baseline, mean (95% CI) [3]: −4.5 (−5.5 to −3.5) kg | Fasting plasma glucose, change from baseline, mean (95% CI) [4]: 2.4 mg/dL | Weight, change from baseline, mean (95% CI) [4]: -4.5 kg | Total daily insulin dose, change from baseline, mean (95% CI) [2]: −1.4 (−6.6 to 3.9) U | Patients with HbA1c < 7.0%, (%), response [3]: 13.0% | Patients with ↓ HbA1c ≧ 0.5%, (%), response [3]: 65.2% | HbA1c change from baseline, difference vs placebo + insulin + OAD, mean (95% CI) (Dapagliflozin 10 mg + insulin + OAD, week 12 LOCF, listed as dapagliflozin): −0.70% | Patients with HbA1c < 7.0%, No., response [5]: 3 | Patients with ↓ HbA1c ≧ 0.5%, No., response [5]: 15 | HbA1c, mean (SD), End of Double-blind (Week 12 LOCF) (Dapagliflozin 10 mg once daily + insulin (50% of usual dose) + OAD, Cohort 2, excludes data after insulin up-titration): 7.8 (0.7) % | Fasting plasma glucose, mean (SD), End of Double-blind (Week 12 LOCF) [6]: 149.4 (32.0) mg/dL | Weight, mean (SD), End of Double-blind (Week 12 LOCF) [6]: 97.8 (14.1) kg | Total daily insulin dose, mean (SD), End of Double-blind (Week 12 LOCF) (Dapagliflozin 20 mg + insulin + OAD): 53.5 (32.1) U | Postprandial glucose, mean (SD), End of Double-blind (Week 12 LOCF) [6]: 272.6 (51.2) mg/dL | Fasting plasma glucose change from baseline, difference vs placebo + insulin + OAD, mean (95% CI) [7]: −27.4 (−50.3 to −4.6) mg/dL | HbA1c change from baseline, difference vs placebo + insulin + OAD, mean (95% CI) [7]: −0.78 (−1.16 to −0.40) % | Patients with ↓ HbA1c ≧ 0.5%, difference in proportions vs placebo + insulin + OAD (95% CI) [7]: 49.4 (20.1 to 72.4) % | Total daily insulin dose change from baseline, difference vs placebo + insulin + OAD, mean (95% CI) [7]: −2.5 (−10.2 to 5.1) U | Weight change from baseline, difference vs placebo + insulin + OAD, mean (95% CI) [7]: −2.4 (−3.8 to −1.0) kg | Postprandial glucose, change from baseline, mean (95% CI) [8]: −41.9 (−74.8 to −8.9) mg/dL | Fasting plasma glucose, change from baseline, mean (95% CI) [8]: −9.6 (−25.6 to 6.3) mg/dL | HbA1c, change from baseline, mean (95% CI) [8]: −0.69 (−0.94 to −0.43) % | Weight, change from baseline, mean (95% CI) [8]: −4.3 (−5.3 to −3.3) kg | Fasting plasma glucose, change from baseline, mean (95% CI) [9]: -9.6 mg/dL | Weight, change from baseline, mean (95% CI) [9]: -4.3 kg | Total daily insulin dose, change from baseline, mean (95% CI) [7]: −0.8 (−6.1 to 4.5) U | Patients with HbA1c < 7.0%, (%), response [8]: 4.3% | Patients with ↓ HbA1c ≧ 0.5%, (%), response [8]: 65.2% | HbA1c change from baseline, difference vs placebo + insulin + OAD, mean (95% CI) (Dapagliflozin 20 mg + insulin + OAD, week 12 LOCF, listed as dapagliflozin): −0.78% | Patients with HbA1c < 7.0%, No., response (Dapagliflozin 20 mg + insulin + OAD, week 12 LOCF, of 23 patients, excludes data after insulin up-titration): 1
